Test results from patent US10695322B2 (priority 2016, dated 2020).
Entries after “also recorded” stand apart in the source; their conditions may differ.

Tests used:
[1] = system: LdtMt2 variants Y318F, H336N, H352N and C354S; assay type: binding, M. tuberculosis
[2] = system: mutant LdtMt2 (Y318A, Y318F, H336N, H352A, H352N, C354A, C354S); assay type: binding, M. tuberculosis
[3] = target: LdtMt1 (Mycobacterium tuberculosis, UniProt O53638); assay type: binding, M. tuberculosis
[4] = target: T1, LdtMt2 (Mycobacterium tuberculosis, UniProt I6Y9J2); assay type: binding, M. tuberculosis
T1 sequence (I6Y9J2 56-408 limits assumed): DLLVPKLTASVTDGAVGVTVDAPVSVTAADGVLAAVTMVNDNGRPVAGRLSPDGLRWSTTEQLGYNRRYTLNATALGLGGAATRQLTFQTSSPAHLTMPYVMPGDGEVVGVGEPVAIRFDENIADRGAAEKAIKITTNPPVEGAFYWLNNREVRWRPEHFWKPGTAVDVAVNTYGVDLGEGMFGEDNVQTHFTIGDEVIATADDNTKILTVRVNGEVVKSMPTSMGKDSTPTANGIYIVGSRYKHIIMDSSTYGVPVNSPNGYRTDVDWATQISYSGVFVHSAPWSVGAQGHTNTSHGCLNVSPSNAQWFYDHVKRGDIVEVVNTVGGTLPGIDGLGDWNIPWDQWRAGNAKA

[5] = target: T1, LdtMt2; test: biochemical; design: species or system M. tuberculosis; conditions: read-out: kinact/Kapp ratio

Sequence of LdtMt1 (O53638 32-251 limits assumed): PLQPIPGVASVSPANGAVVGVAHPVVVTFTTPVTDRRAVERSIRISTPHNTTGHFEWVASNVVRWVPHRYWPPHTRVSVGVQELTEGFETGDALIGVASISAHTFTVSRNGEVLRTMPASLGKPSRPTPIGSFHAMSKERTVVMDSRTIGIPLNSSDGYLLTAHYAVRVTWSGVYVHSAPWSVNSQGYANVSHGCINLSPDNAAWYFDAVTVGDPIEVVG

| Structure (SMILES) | binding affinity [1] | adduct formation [2] | reaction and covalent adduct formation [3] | reaction and covalent adduct formation [4] | kinact/KI [5] |
| --- | --- | --- | --- | --- | --- |
| C[C@@H](O)[C@H]1C(=O)N2C(C(=O)O)=C(SC3CN(C4=NCCS4)C3)[C@H](C)[C@H]12 [tebipenem] | either a complete loss of or no appreciable binding affinities | same adducts were detected; also recorded: failed to produce any covalent adduct | – | – | – |
| CSC1=C(C(=O)O)N2C(=O)[C@H]([C@@H](C)O)[C@H]2[C@H]1C [T210] | poor binding affinities | – | reacted and formed covalent adducts | reacted and formed covalent adducts | – |
| CCCOC(=O)CSC1=C(C(=O)O)N2C(=O)[C@H]([C@@H](C)O)[C@H]2[C@H]1C [T206] | – | – | reacted and formed covalent adducts | reacted and formed covalent adducts | – |
| C[C@@H](O)[C@H]1C(=O)N2C(C(=O)O)=C([C@H]3CCCO3)S[C@H]12 [faropenem] | either a complete loss of or no appreciable binding affinities | same adducts were detected; also recorded: failed to produce any covalent adduct | – | – | – |
| C[C@@H](O)[C@H]1C(=O)N2C(C(=O)O)=C(SCC(=O)OC3CCCCC3)[C@H](C)[C@H]12 [T208] | – | – | reacted and formed covalent adducts | reacted and formed covalent adducts | 9330 M⁻¹ s⁻¹ |
| COC(=O)CSC1=C(C(=O)[O-])N2C(=O)[C@H]([C@@H](C)O)[C@H]2[C@H]1C.[Na+] [T205, sodium (4R,5S,6S)-6-((R)-1-hydroxyethyl)-3-((2-methoxy-2-oxoethyl)thio)-4-methyl-7-oxo-1-azabicyclo[3.2.0]hept-2-ene-2 carboxylate] | – | – | reacted and formed covalent adducts | reacted and formed covalent adducts | – |
| C[C@@H](O)[C@H]1C(=O)N2C(C(=O)[O-])=C(SC3Cn4cnc[n+]4C3)[C@H](C)[C@H]12 (stereo partly drawn) [biapenem] | – | no adducts could be detected | – | – | – |
